From patent US3989730A, “Bone-seeking technetium-99m complex” (priority 1973, dated 1976)
Where two headings read alike, the source gives them in different places.

What was measured:
[1] = Simultaneous distribution of 99mTc-EHDP and 85Sr in rabbits at 1-24 hours after intravenous injection; assay type: in vivo, adult New Zealand albino rabbits; settings: for Blood, % Dose in Whole Organ: blood as 7 % of body weight; for Bone(Avg), % dose in whole organ: bone as 10 % of body weight; for Marrow, % Dose in Whole Organ: marrow as 2.2 % of body weight
Procedure: Adult New Zealand albino rabbits having an average weight of 3.8 kg were utilized. Strontium-85 was employed as a standard for comparison. […] Each dosage is contained in a volume of 1 ml.
Multiple samples were counted from the tibia, femur, spine and pelvic bones; the total activity in the skeleton was estimated by assuming the whole skeleton consisted of equal proportions by weight of tibia, spine, femur and pelvis and that the skeletal mass was 10% of the body weight. […] The whole liver and both kidneys were weighed and multiple samples from each were counted to measure the total activity in each organ.

[2] = tested on: callous of three week-old fractures of tibia; experiment: Localization in callous of three week-old tibial fractures (rabbits), compared with strontium-85; assay type: in vivo, albino rabbits
Procedure: Adult New Zealand albino rabbits having an average weight of 3.8 kg were utilized. Strontium-85 was employed as a standard for comparison. In a typical experiment 20-250 μCi (i.e., containing approximately 1 mg/kg as the free acid of body weight) of 99mTc EHDP were injected intravenously into the rabbits through the marginal ear vein and compared with 10-20 μ Ci 85 Sr chloride administered simutaneously. Each dosage is contained in a volume of 1 ml.
The animals were sacrificed serially from 1 to 24 hours after injection and the activities in major organs were determined by counting multiple samples from each organ in a scintillation well counter (the technetium-99m counts were corrected for the Compton contributions from the strontium-85 activity in the technetium-99m energy window). Multiple samples were counted from the tibia, femur, spine and pelvic bones; the total activity in the skeleton was estimated by assuming the whole skeleton consisted of equal proportions by weight of tibia, spine, femur and pelvis and that the skeletal mass was 10% of the body weight. The red marrow was sampled from the femur and the total marrow was assumed to be 2.2% of the total body weight. Similarly, blood volume was assumed to be 7% and the skeletal muscle 43% of the body weight. The whole liver and both kidneys were weighed and multiple samples from each were counted to measure the total activity in each organ.
In another series of experiments carried out as described above, localization of technetium from its tin-phosphonate complex was determined in the callous of three week-old fractures of tibia in albino rabbits, again in comparison with strontium-85. Comparative radioassay of technetium-99m administered as the pertechnetate was measured in the callous of tibial fractures in rabbits at one and four hours after administration.

[3] = 2 Hrs
[4] = cited from earlier work

## tin-1-hydroxy-ethane-1,1-diphosphonate [99mTc-EHDP]
[1]; 1 Hr
  Blood, % dose / 1 % body weight: 1.23 % dose / 1 % body weight
  Bone(Avg), % dose / 1 % body weight: 4.66 % dose / 1 % body weight
  Femur, % dose / 1 % body weight: 3.85 % dose / 1 % body weight
  Kidneys, % Dose in Whole Organ: 2.40 % dose
  Kidneys, % dose / 1 % body weight: 3.93 % dose / 1 % body weight
  Liver, % Dose in Whole Organ: 0.80 % dose
  Liver, % dose / 1 % body weight: 0.30 % dose / 1 % body weight
  Marrow, % dose / 1 % body weight: 0.36 % dose / 1 % body weight
  Muscle, % dose / 1 % body weight: 0.15 % dose / 1 % body weight
  One Femur, % Dose in Whole Organ: 0.82 % dose
  Pelvis, % dose / 1 % body weight: 7.15 % dose / 1 % body weight
  Spine, % dose / 1 % body weight: 5.87 % dose / 1 % body weight
  Tibia, % dose / 1 % body weight: 2.17 % dose / 1 % body weight
  Urine, % Dose: 30.9 % dose
  Blood, % Dose in Whole Organ: 8.61 % dose
  Bone(Avg), % dose in whole organ: 46.6 % dose
  Marrow, % Dose in Whole Organ: 0.70 % dose
[1]; 2 Hrs
  Blood, % dose / 1 % body weight: 0.37 % dose / 1 % body weight
  Bone(Avg), % dose / 1 % body weight: 4.82 % dose / 1 % body weight
  Femur, % dose / 1 % body weight: 3.94 % dose / 1 % body weight
  Kidneys, % Dose in Whole Organ: 1.22 % dose
  Kidneys, % dose / 1 % body weight: 2.72 % dose / 1 % body weight
  Liver, % Dose in Whole Organ: 0.42 % dose
  Liver, % dose / 1 % body weight: 0.18 % dose / 1 % body weight
  Marrow, % dose / 1 % body weight: 0.17 % dose / 1 % body weight
  Muscle, % dose / 1 % body weight: 0.04 % dose / 1 % body weight
  One Femur, % Dose in Whole Organ: 0.84 % dose
  Pelvis, % dose / 1 % body weight: 7.40 % dose / 1 % body weight
  Spine, % dose / 1 % body weight: 5.44 % dose / 1 % body weight
  Tibia, % dose / 1 % body weight: 2.49 % dose / 1 % body weight
  Blood, % Dose in Whole Organ: 2.58 % dose
  Bone(Avg), % dose in whole organ: 48.2 % dose
  Marrow, % Dose in Whole Organ: 0.38 % dose
[1]; 2 Hrs, 1 mg/kg
  Urine, % Dose: 51.8 % dose
[1]; 4 Hrs
  Blood, % dose / 1 % body weight: 0.13 % dose / 1 % body weight
  Bone(Avg), % dose / 1 % body weight: 4.74 % dose / 1 % body weight
  Femur, % dose / 1 % body weight: 3.86 % dose / 1 % body weight
  Kidneys, % Dose in Whole Organ: 0.94 % dose
  Kidneys, % dose / 1 % body weight: 1.95 % dose / 1 % body weight
  Liver, % Dose in Whole Organ: 0.28 % dose
  Liver, % dose / 1 % body weight: 0.11 % dose / 1 % body weight
  Marrow, % dose / 1 % body weight: 0.38 % dose / 1 % body weight
  Muscle, % dose / 1 % body weight: 0.03 % dose / 1 % body weight
  One Femur, % Dose in Whole Organ: 0.81 % dose
  Pelvis, % dose / 1 % body weight: 7.41 % dose / 1 % body weight
  Spine, % dose / 1 % body weight: 5.52 % dose / 1 % body weight
  Tibia, % dose / 1 % body weight: 2.16 % dose / 1 % body weight
  Blood, % Dose in Whole Organ: 0.89 % dose
  Bone(Avg), % dose in whole organ: 47.4 % dose
  Marrow, % Dose in Whole Organ: 0.83 % dose
[1]; 4 Hrs, 1 mg/kg
  Urine, % Dose: 53.4 % dose
[1]; 24 Hrs
  Blood, % dose / 1 % body weight: 0.07 % dose / 1 % body weight
  Bone(Avg), % dose / 1 % body weight: 4.14 % dose / 1 % body weight
  Femur, % dose / 1 % body weight: 3.42 % dose / 1 % body weight
  Kidneys, % Dose in Whole Organ: 0.63 % dose
  Kidneys, % dose / 1 % body weight: 1.29 % dose / 1 % body weight
  Liver, % Dose in Whole Organ: 0.43 % dose
  Liver, % dose / 1 % body weight: 0.28 % dose / 1 % body weight
  Marrow, % dose / 1 % body weight: 0.19 % dose / 1 % body weight
  Muscle, % dose / 1 % body weight: 0.02 % dose / 1 % body weight
  One Femur, % Dose in Whole Organ: 0.76 % dose
  Pelvis, % dose / 1 % body weight: 5.70 % dose / 1 % body weight
  Spine, % dose / 1 % body weight: 5.30 % dose / 1 % body weight
  Tibia, % dose / 1 % body weight: 2.10 % dose / 1 % body weight
  Blood, % Dose in Whole Organ: 0.49 % dose
  Bone(Avg), % dose in whole organ: 41.5 % dose
  Marrow, % Dose in Whole Organ: 0.42 % dose
[1]; rabbits
  skeletal concentrations compared with 85Sr: similar
[1]; various times, rabbits
  soft tissue and blood concentrations compared with 85Sr: much lower than those for 85 Sr
[2]; 1 Hr
  Callus, % dose / 1 % body weight: 24.7 % dose / 1 % body weight
[2]; 4 Hrs
  Callus, % dose / 1 % body weight: 28.9 % dose / 1 % body weight
[2]; rabbits
  concentration in the callous compared with 85Sr: somewhat lower than that of 85 Sr
[3]; EHDP 0.01 mg/kg
  Blood, % Dose in Whole Organ: 0.99 % Dose
  Kidneys, % Dose in Whole Organ: 0.81 % Dose
  Liver, % Dose in Whole Organ: 0.53 % Dose
  Marrow, % Dose in Whole Organ: 0.34 % Dose
  Muscle, % Dose in Whole Organ: 0.78 % Dose
  One Femur, % Dose in Whole Organ: 2.20 % Dose
  One Tibia, % Dose in Whole Organ: 2.05 % Dose
  Urine, % Dose: 46.7 % Dose
[3]; EHDP 0.05 mg/kg
  Blood, % Dose in Whole Organ: 1.35 % Dose
  Kidneys, % Dose in Whole Organ: 2.9 % Dose
  Liver, % Dose in Whole Organ: 1.61 % Dose
  Marrow, % Dose in Whole Organ: 0.78 % Dose
  Muscle, % Dose in Whole Organ: 1.33 % Dose
  One Femur, % Dose in Whole Organ: 2.44 % Dose
  One Tibia, % Dose in Whole Organ: 2.22 % Dose
  Urine, % Dose: 37.3 % Dose
[3]; EHDP 0.1 mg/kg
  Blood, % Dose in Whole Organ: 1.02 % Dose
  Kidneys, % Dose in Whole Organ: 0.63 % Dose
  Liver, % Dose in Whole Organ: 0.19 % Dose
  Marrow, % Dose in Whole Organ: 0.20 % Dose
  Muscle, % Dose in Whole Organ: 0.98 % Dose
  One Femur, % Dose in Whole Organ: 2.82 % Dose
  One Tibia, % Dose in Whole Organ: 2.44 % Dose
  Urine, % Dose: 30.4 % Dose
[3]; EHDP 0.5 mg/kg
  Blood, % Dose in Whole Organ: 1.503 % Dose
  Kidneys, % Dose in Whole Organ: 1.10 % Dose
  Liver, % Dose in Whole Organ: 0.260 % Dose
  Marrow, % Dose in Whole Organ: 0.19 % Dose
  Muscle, % Dose in Whole Organ: 1.22 % Dose
  One Femur, % Dose in Whole Organ: 1.75 % Dose
  One Tibia, % Dose in Whole Organ: 1.43 % Dose
  Urine, % Dose: 55.37 % Dose

## technetium-99m
[4]; gamma emission of 140 KeV
  external photon yield: 90%
[4]; radioactive decay
  half-life of radionuclide: 6 h
